Among the test systems are HL-60(TB) leukemia; KM12 colon; MALME-3M melanoma; NCI-H522 lung; OVCAR-3 ovarian; OVCAR-8 ovarian; SF-268 CNS; SW-620 colon; TK-10 renal; UACC-62 melanoma.
Common to all, as to test: inhibition of tumour cell growth, NCI panel, 48 h

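96-well plates; 48 h exposure; 5 concentrations. Endpoints by linear interpolation between flanking doses. Not reached: highest tested concentration assigned. TGI is the concentration that stops growth completely.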

This is an account of results in PubChem BioAssay (NCI).

Turning to `CCCCOC(=O)C(=O)C(CCC(=O)c1ccc(C)cc1)C(=O)C=C(C)C` (stereo not given), the TGI in the assay on HL-60(TB) leukemia, with KM12 colon, in the assay with MALME-3M melanoma, in the assay on NCI-H522 lung, in the assay on OVCAR-3 ovarian and with OVCAR-8 ovarian was over 100 µM in each case. Besides, the TGI in the assay on SF-268 CNS, in the assay with SW-620 colon, in the assay on TK-10 renal and with UACC-62 melanoma was over 100 µM throughout.
On to `Cc1ccc2c(=O)cc(-c3csc4ccccc34)[nH]c2n1`, for which the TGI in the assay with HL-60(TB) leukemia was 0.0258 µM; in the assay on KM12 colon, 0.86 µM; in the assay with MALME-3M melanoma it was 54.6 µM; in the assay with NCI-H522 lung, under 0.01 µM; in the assay on OVCAR-3 ovarian, under 0.01 µM; with OVCAR-8 ovarian, 5.55 µM. Moreover, the TGI in the assay on SF-268 CNS was over 53.2 µM; in the assay with SW-620 colon it was over 100 µM; with TK-10 renal it was 9.78 µM; with UACC-62 melanoma, over 76.8 µM.
Turning to `O=C(Nc1ccccc1F)c1c(O)nc2sccn2c1=O`, the TGI in the assay with HL-60(TB) leukemia, in the assay with KM12 colon, with MALME-3M melanoma, in the assay with NCI-H522 lung, with OVCAR-3 ovarian and with OVCAR-8 ovarian was over 10 µM each time. Further, the TGI with SF-268 CNS, in the assay with SW-620 colon, in the assay on TK-10 renal and in the assay with UACC-62 melanoma was over 10 µM in each case.
In the case of `CSc1nc(NC2CCCC2)c2cc[nH]c2n1`, the TGI was 47.4 µM in the assay on HL-60(TB) leukemia; over 100 µM with KM12 colon; over 100 µM in the assay with MALME-3M melanoma; over 100 µM in the assay with NCI-H522 lung; over 100 µM in the assay with OVCAR-3 ovarian; over 100 µM in the assay on OVCAR-8 ovarian. Also, the TGI in the assay on SF-268 CNS, in the assay with SW-620 colon, with TK-10 renal and in the assay on UACC-62 melanoma was over 100 µM throughout.
Turning to `COc1ccc2c(c1)OC(c1cccnc1)C(c1ccccc1)C2=O` (stereo not given), the TGI in the assay on HL-60(TB) leukemia, in the assay on KM12 colon, with MALME-3M melanoma, in the assay with NCI-H522 lung, with OVCAR-3 ovarian and with OVCAR-8 ovarian was over 100 µM in each case. Besides, the TGI with SF-268 CNS, with SW-620 colon, in the assay on TK-10 renal and in the assay with UACC-62 melanoma was over 100 µM throughout.
Regarding `COC1=CC(=O)c2ccccc2C1(CCC=C(C)C)C1=NC(C)(C)CO1` (stereo not given), the TGI in the assay on HL-60(TB) leukemia is 62.9 µM; in the assay on KM12 colon, over 100 µM; in the assay with MALME-3M melanoma, over 100 µM; in the assay on NCI-H522 lung, over 100 µM; in the assay with OVCAR-3 ovarian it was over 100 µM; in the assay on OVCAR-8 ovarian it was over 100 µM. The TGI in the assay with SF-268 CNS, in the assay on SW-620 colon, in the assay with TK-10 renal and with UACC-62 melanoma was over 100 µM each time.
Regarding `Cc1ccc(F)cc1NC(=O)O/N=C(\Cl)C(C)C`, the TGI is over 21.2 µM in the assay with HL-60(TB) leukemia; 34.8 µM with KM12 colon; 16 µM in the assay with MALME-3M melanoma; 2.13 µM in the assay with NCI-H522 lung; 13.9 µM in the assay on OVCAR-3 ovarian; 35.9 µM with OVCAR-8 ovarian. Further, the TGI came out at 62.8 µM in the assay on SF-268 CNS, 3.18 µM with SW-620 colon, 15 µM in the assay with TK-10 renal and 39.7 µM in the assay on UACC-62 melanoma.
As to `CCOC/N=C(/N)NC#N`, the TGI in the assay with HL-60(TB) leukemia, with KM12 colon, in the assay with MALME-3M melanoma, in the assay with NCI-H522 lung, in the assay with OVCAR-3 ovarian and in the assay on OVCAR-8 ovarian was over 100 µM each time. Besides, the TGI in the assay on SF-268 CNS was over 100 µM; in the assay on SW-620 colon it was 35.3 µM; in the assay on TK-10 renal it was over 100 µM; with UACC-62 melanoma, over 100 µM.
In the case of `CC(C)/C(Cl)=N/OC(=O)Nc1ccc(F)c(Cl)c1`, the TGI in the assay on HL-60(TB) leukemia turned out to be 5.23 µM; in the assay on KM12 colon, 30.6 µM; in the assay with MALME-3M melanoma it was 4.08 µM; with NCI-H522 lung it was 3.01 µM; in the assay with OVCAR-3 ovarian it was 9.11 µM; in the assay with OVCAR-8 ovarian, 32.4 µM. Further, the TGI in the assay with SF-268 CNS was determined as 40.3 µM; in the assay with SW-620 colon, 3.47 µM; in the assay on TK-10 renal, 31.9 µM; in the assay on UACC-62 melanoma it was 27.3 µM.
Regarding `CCC1C(=O)C[C@H]2[C@@H]3C(O)CC4=CC(=O)CC[C@]4(C)[C@H]3CC[C@]12C` (stereo not given in full), the TGI in the assay on HL-60(TB) leukemia, in the assay with KM12 colon, in the assay on MALME-3M melanoma, in the assay with NCI-H522 lung, with OVCAR-3 ovarian and in the assay on OVCAR-8 ovarian was over 50 µM each time. In addition, the TGI with SF-268 CNS, in the assay with SW-620 colon, with TK-10 renal and in the assay on UACC-62 melanoma was over 50 µM throughout.
`c1ccc(CNc2c3c(nc4ccccc24)CCC3)cc1`: the TGI with HL-60(TB) leukemia came to 0.146 µM; with KM12 colon it was 40.3 µM; in the assay with MALME-3M melanoma it was 33.4 µM; in the assay with NCI-H522 lung it was 39.3 µM; in the assay with OVCAR-3 ovarian, 30.8 µM; with OVCAR-8 ovarian, 31.7 µM. Moreover, the TGI in the assay on SF-268 CNS is 46.6 µM; in the assay with SW-620 colon, 28.2 µM; with TK-10 renal, 33.6 µM; in the assay with UACC-62 melanoma, 28 µM.
Take `Cc1ccc(N=Nc2c(C)nn(C(=O)CC(=O)Nc3ccccc3)c2C)cc1C`: the TGI with HL-60(TB) leukemia, in the assay with KM12 colon, in the assay on MALME-3M melanoma, in the assay on NCI-H522 lung, in the assay with OVCAR-3 ovarian and with OVCAR-8 ovarian was over 100 µM throughout. Moreover, the TGI with SF-268 CNS, in the assay with SW-620 colon, in the assay on TK-10 renal and in the assay with UACC-62 melanoma was over 100 µM each time.
Turning to `CN(C)c1ccc(/C=N/Nc2nc3ccccc3c(=O)n2-c2ccccc2)cc1`, the TGI in the assay with HL-60(TB) leukemia, with KM12 colon, in the assay on MALME-3M melanoma, in the assay with NCI-H522 lung, in the assay on OVCAR-3 ovarian and in the assay on OVCAR-8 ovarian was over 100 µM in each case. The TGI in the assay on SF-268 CNS was over 100 µM; in the assay with SW-620 colon, over 100 µM; in the assay with TK-10 renal, over 100 µM; with UACC-62 melanoma, 93.6 µM.
With `COc1ccc(CCn2cnc3ccccc32)cc1`, the TGI in the assay on HL-60(TB) leukemia, in the assay with KM12 colon, in the assay with MALME-3M melanoma, in the assay on NCI-H522 lung, in the assay on OVCAR-3 ovarian and in the assay with OVCAR-8 ovarian was over 100 µM in each case. Moreover, the TGI in the assay with SF-268 CNS, in the assay on SW-620 colon, in the assay with TK-10 renal and with UACC-62 melanoma was over 100 µM in each case.
Consider `O=C(Nc1sccc1S(=O)(=O)c1ccccc1)c1cccnc1`, for which the TGI is 4.28 µM in the assay with HL-60(TB) leukemia; over 100 µM in the assay with KM12 colon; over 100 µM in the assay with MALME-3M melanoma; over 85.4 µM in the assay on NCI-H522 lung; over 100 µM in the assay with OVCAR-3 ovarian; over 100 µM in the assay on OVCAR-8 ovarian. For the same molecule, the TGI in the assay with SF-268 CNS, in the assay on SW-620 colon, in the assay on TK-10 renal and in the assay on UACC-62 melanoma was over 100 µM throughout.
Regarding `COc1ccc2nc3cc(Cl)ccc3c(NCCCCCC(=O)NC(COc3cnc4c(ccc5cccnc54)c3)COc3cnc4c(ccc5cccnc54)c3)c2c1`, the TGI was 15.1 µM in the assay with HL-60(TB) leukemia; over 100 µM in the assay on KM12 colon; over 100 µM with MALME-3M melanoma; over 100 µM in the assay on NCI-H522 lung; 34.6 µM with OVCAR-3 ovarian; over 100 µM in the assay on OVCAR-8 ovarian. Moreover, the TGI in the assay on SF-268 CNS was 40.2 µM; with SW-620 colon it was 24.4 µM; with TK-10 renal, 91.6 µM; in the assay with UACC-62 melanoma it was over 100 µM.
As to `Cn1ccnc1S/C(=C\C=C(C#N)C#N)c1ccc(Cl)cc1`, the TGI with HL-60(TB) leukemia was found to be 3.42 µM; in the assay with KM12 colon, 6.22 µM; in the assay on MALME-3M melanoma, 3.27 µM; in the assay on NCI-H522 lung it was 11.5 µM; in the assay on OVCAR-3 ovarian, 5.29 µM; with OVCAR-8 ovarian it was 3.57 µM. Besides, the TGI with SF-268 CNS stood at 14.4 µM; with SW-620 colon, 11.9 µM; with TK-10 renal, 2.81 µM; with UACC-62 melanoma, 9.36 µM.
On to `Oc1ccc(/C=C\c2nnc(/C=C\c3ccc(O)c(O)c3)s2)cc1O`, for which the TGI is 2.94 µM with HL-60(TB) leukemia; 18.9 µM in the assay with KM12 colon; 17.7 µM in the assay on MALME-3M melanoma; 3.29 µM in the assay on NCI-H522 lung; 16.3 µM in the assay with OVCAR-3 ovarian; over 48.4 µM with OVCAR-8 ovarian. Further, the TGI in the assay on SF-268 CNS was 14.8 µM; with SW-620 colon it was 13.3 µM; with TK-10 renal it was 21.4 µM; with UACC-62 melanoma it was 14 µM.
Consider `COC(=O)Cc1ccc2c(c1)Sc1ccc(CC(=O)OC)cc1N2C`, for which the TGI is over 93.3 µM in the assay with HL-60(TB) leukemia; over 100 µM in the assay with KM12 colon; 80.6 µM with MALME-3M melanoma; 58.1 µM in the assay on NCI-H522 lung; over 100 µM with OVCAR-3 ovarian; over 100 µM in the assay with OVCAR-8 ovarian. Further, the TGI with SF-268 CNS, in the assay with SW-620 colon, with TK-10 renal and with UACC-62 melanoma was over 100 µM in each case.
On to `O=C(NCCN(CCNC(=O)c1cccc(=O)n1O)CCN(CCNC(=O)c1cccc(=O)n1O)CCNC(=O)c1cccc(=O)n1O)c1cccc(=O)n1O`, for which the TGI in the assay on HL-60(TB) leukemia, with KM12 colon, with MALME-3M melanoma, with NCI-H522 lung, in the assay with OVCAR-3 ovarian and with OVCAR-8 ovarian was over 100 µM throughout. Moreover, the TGI in the assay with SF-268 CNS, in the assay with SW-620 colon, in the assay with TK-10 renal and with UACC-62 melanoma was over 100 µM each time.
